Counter-ions that a name gives are not always drawn.
biological target: Leukotriene B4 receptor 1 (Cavia porcellus); test: Binding affinity against Guinea pig membrane LTB4 Receptor.

| Ki [nM] | SMILES |
| --- | --- |
| 14 | CCCc1cc(CC)c(OCCCCCC(C)(C)c2nn[nH]n2)cc1O [Sodium salt of 4-Ethyl-5-[6-methyl-6-(2H-tetrazol-5-yl)-heptyloxy]-2-propyl-phenol] |
| 17 | CCc1cc(CC)c(OCCCCCC(C)(C)c2nn[nH]n2)cc1O [sodium 2,4-diethyl-5-[6-methyl-6-(2H-1,2,3,4-tetraazol-5-yl)heptyloxy]phenol] |
| 33 | CCCCCCc1cc(CC)c(OCCCCCC(C)(C)c2nn[nH]n2)cc1O [sodium 4-ethyl-2-hexyl-5-[6-methyl-6-(2H-1,2,3,4-tetraazol-5-yl)heptyloxy]phenol] |

Reference: BindingDB's records for doi:10.1016/0960-894X(95)00340-Y (1995)
